The results in this text go back to patent US6365602B1, “N-substituted naphthalene carboxamides as neurokinin-receptor antagonists” (Astra Zeneca AB, priority 1998, dated 2002).

Where a name gives a salt, the structure may show the parent alone.

One data set concerns the target T1, NK2 receptors (Cavia porcellus, UniProt Q64077).
T1 construct: from tissue; host or cells: whole anesthetized guinea pig (airways, in vivo)
T1 sequence (Q64077 1-402): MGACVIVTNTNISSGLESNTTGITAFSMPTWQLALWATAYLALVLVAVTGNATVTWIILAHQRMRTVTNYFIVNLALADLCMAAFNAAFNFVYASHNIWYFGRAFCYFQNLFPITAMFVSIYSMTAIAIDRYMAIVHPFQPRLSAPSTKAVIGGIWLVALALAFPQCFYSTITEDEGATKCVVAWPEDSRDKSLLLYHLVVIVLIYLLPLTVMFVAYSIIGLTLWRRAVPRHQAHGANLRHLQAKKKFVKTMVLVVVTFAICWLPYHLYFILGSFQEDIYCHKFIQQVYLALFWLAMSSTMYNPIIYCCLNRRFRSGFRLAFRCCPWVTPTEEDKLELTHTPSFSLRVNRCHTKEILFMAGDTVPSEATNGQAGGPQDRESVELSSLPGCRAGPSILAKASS
Kind of data set: NK2 in vivo functional assay (Test F), BANK-induced bronchoconstriction. The settings on record: anesthetized guinea pig, agonist BANK, Dose Ratio of ED50 in presence/absence of antagonist. The protocol: (§1) NK1 and NK2 in vivo functional assay (Test F)
(§2) Exp. Ther., 1993, Vol 267(3), pp 1168-1175. The assay is carried out as follows.
(§3) Compounds are tested in anesthetized guinea pigs pretreated with i.v. indomethacin (10 mg/kg, 20 min.), propranolol (0.5 mg/kg, 15 min.), and thiorphan (10 mg/kg, 10 min).
(§4) […] The agonists used in these studies are ASMSP (Ac-[Arg^6, Sar^9, Met(O2)^11]-SP(6-11)) and BANK (β-ala-8 NKA4-10).
(§5) Administered i.v., ASMSP is selective for NK1 receptors, and BANK is selective for NK2 receptors. Maximum response is defined as zero conductance (GL, 1/Rp). ED50 values are calculated (the dose of agonist resulting in a reduction of GL to 50% of baseline), and converted to the negative logarithm (−logED50). The ED50 values, obtained in the presence (P) and absence (A) of antagonist, are used to calculate a Dose Ratio (P/A), an expression of potency. Data are expressed as mean±SEM and statistical differences were determined using ANOVA/Tukey-Kramer and Student's t-test, with p<0.05 considered statistically significant.

Another data set has as its target T2, NK2 receptor (Oryctolagus cuniculus, UniProt P79218).
T2 construct: Left and right pulmonary arteries are excised from male New Zealand white rabbits; from tissue; host or cells: rabbit pulmonary artery ring segments, endothelium removed
T2 sequence (P79218 1-384): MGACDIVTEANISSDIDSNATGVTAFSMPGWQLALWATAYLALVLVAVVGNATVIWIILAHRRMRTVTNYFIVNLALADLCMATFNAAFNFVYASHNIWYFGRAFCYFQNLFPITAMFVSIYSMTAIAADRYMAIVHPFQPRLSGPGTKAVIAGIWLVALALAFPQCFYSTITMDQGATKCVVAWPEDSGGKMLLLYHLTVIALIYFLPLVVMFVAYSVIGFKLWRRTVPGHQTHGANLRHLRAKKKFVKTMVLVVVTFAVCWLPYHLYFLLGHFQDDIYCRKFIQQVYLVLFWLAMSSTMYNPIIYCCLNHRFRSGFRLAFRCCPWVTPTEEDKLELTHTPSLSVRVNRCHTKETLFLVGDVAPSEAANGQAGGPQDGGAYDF
Nature of the data set: NK2 in vitro functional assay (Test E), rabbit pulmonary artery. The following applies: contraction to agonist BANK, negative log apparent dissociation constant, read-out: NK2pKb (converted). The class given is cell-based.
Source text: NK2 in vitro functional assay (Test E)
The ability of a Compound of the invention to antagonize the action of the agonist [β-ala^8] […] Am. J. Physiol. […] Left and right pulmonary arteries are excised from male New Zealand white rabbits. The pulmonary arteries are cut into ring segments and the intimal surface rubbed gently to remove the endothelium. Paired tissue segments of pulmonary artery are suspended between stainless steel stirrups for analyses of isometric tension development under standard conditions in physiological salt solution (PSS) containing indomethacin, (5 microM; to inhibit cyclooxygenase).
Initial tension placed on each tissue is 2 grams, which is maintained throughout the 45 minute equilibration period. Tissues are washed with PSS at 15 minute intervals. After the 45 minute equilibration period, 3×10^−2M KCl is applied for 60 minutes to test tissue viability. The tissues are then washed extensively for 30 minutes. The concentration of the Compound being tested is then added for 30 minutes before constructing a cumulative concentration-response curve with BANK. The curve is considered complete when each tissue fails to contract further for 2 consecutively increasing BANK concentrations. BaCl2 (3×10^−2M ) is then added to produce a maximum reference contraction.
(§6) Percent inhibition is determined when a tested Compound produces a statistically significant reduction in the magnitude of maximum contraction and is calculated as a percentage of the BaCl2 reference response. For antagonists behaving competitively, potencies are determined by calculating the negative log value of the apparent dissociation constant (pKB) for each concentration tested. Statistical significance is determined when the P value is <0.05 using the Student's t-test for paired comparisons.
as §1

The target in another data set is T3, NK1 receptor (Oryctolagus cuniculus, UniProt G1SEI7).
T3 construct: Paired tissue segments of pulmonary artery excised from male New Zealand white rabbits; from tissue; host or cells: rabbit pulmonary artery segments
Nature of the data set: Rabbit Pulmonary Artery: NK1 in vitro functional assay (Test D). The format is cell-based. The settings on record: relaxation to agonist ASMSP, negative log apparent dissociation constant, read-out: NK1pKb (converted).
Source text: Rabbit Pulmonary Artery: NK1 in vitro functional assay (Test D)
The ability of a Compound of the invention to antagonize the action of the agonist Ac-[Arg^6, Sar^9, Met(O2)^11] […] Am. J. Physiol. 268: L152-L159, 1995.
Paired tissue segments of pulmonary artery excised from male New Zealand white rabbits are suspended between stainless steel stirrups for analyses of isometric relaxation under standard conditions in physiological salt solution (PSS) containing indomethacin (5 microM; to block cyclooxygenase) and propranolol (1 microM; to block β adrenergic receptors).
Initial tension placed on each tissue is 2 grams, which is maintained throughout the 1.0 hour equilibration period. Tissues are washed with PSS at 15 minute intervals. At the 30 and 45 minute wash the following treatments are added: Thiorphan (1 microM; to block E.C.3.4.24.11), ((3R)-3-[(1S)-1-(3,4-Dichlorophenyl)-3-(4-[(R or S)-2-methylsulfinyl-phenyl]-piperidino)propyl]-2-ethyl-2,3-dihydroisoindol-1-one) (0.03 microM; to block NK^2 receptors as described in: “Aharony D., et al. Pharmacological Characterization of ZD7944: A Novel, Potent and orally-Active Non-Peptide Neurokinin-A (NK-2) Receptor Antagonist Eur. Respir. J. 12 (Suppl. 12):20S, 1998”), and the given concentration of the Compound being tested. After equilibration, phenylephrine (3 microM) is added to produce steady-state contraction of the tissue and a dose relaxation curve to ASMSP is constructed. […]
as §6, with “For antagonists behaving in a noncompetitive manner, the percent inhibition of relaxation is determined at a given concentration of the antagonist. Percent” for “Percent”, “reduction of” for “reduction in”, “maximum relaxation” for “maximum contraction”, “the papaverine” for “the BaCl2”, “reference response” for “reference response.”

For the next data set, the target named is T4, NK1 receptors (Cavia porcellus, UniProt P30547).
T4 construct: from tissue; host or cells: whole anesthetized guinea pig (airways, in vivo)
Kind of data set: NK1 in vivo functional assay (Test F), ASMSP-induced bronchoconstriction. The following applies: anesthetized guinea pig, agonist ASMSP, Dose Ratio of ED50 in presence/absence of antagonist. The protocol:
as §1, §2, §3, §4, §5

T3 sequence (G1SEI7 1-407): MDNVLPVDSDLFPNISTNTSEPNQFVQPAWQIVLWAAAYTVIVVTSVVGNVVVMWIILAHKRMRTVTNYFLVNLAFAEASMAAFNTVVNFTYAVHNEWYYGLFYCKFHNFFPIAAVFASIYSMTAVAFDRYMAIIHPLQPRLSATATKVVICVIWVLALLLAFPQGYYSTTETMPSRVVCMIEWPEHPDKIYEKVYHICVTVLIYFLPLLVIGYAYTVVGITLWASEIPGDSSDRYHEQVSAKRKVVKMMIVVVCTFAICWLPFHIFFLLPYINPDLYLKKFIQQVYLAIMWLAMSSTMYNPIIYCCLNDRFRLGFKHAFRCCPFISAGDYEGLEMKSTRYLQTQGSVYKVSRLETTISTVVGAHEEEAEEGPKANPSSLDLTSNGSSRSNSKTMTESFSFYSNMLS
T4 sequence (P30547 whole entry): as the sequence (G1SEI7 1-407) above, with S176G, E186S, G329A, L342F, E368D, A369P, N376T, M395V, F399S counted along it

Take `CN(C[C@@H](CCN1CCC(N2CCCNC2=O)CC1)c1ccc(Cl)c(Cl)c1)C(=O)c1cc(C#N)cc2ccccc12` [Example 36, N-[(S)-2-(3,4-Dichlorophenyl)-4-[4-[tetrahydro-2-oxo-1(2H)-pyrimidinyl]-1-piperidinyl]-butyl]-N-methyl-3-cyano-1-naphthamide Citrate Hydrate (1:1:1.5)]: the “NK2 P/A” value at NK2 receptors (1 hr) is 20.6 (1 hr). In addition, the Kd was 13.8 nM at NK2 receptor and 7.41 nM on NK1 receptor. Besides, the “NK1 P/A” value at NK1 receptors (1 hr) is on record as 45.0 (1 hr).
`CCN(C[C@@H](CCN1CCC(c2ccccc2[S@+](C)[O-])CC1)c1ccc(Cl)c(Cl)c1)C(=O)c1cc(C#N)cc2ccccc12` [Example 69, N-[(S)-2-(3,4-Dichlorophenyl)-4-[4-[(S)-2-methylsulfinylphenyl]-1-piperidinyl]butyl]-N-ethyl-3-cyano-1-naphthamide]: the melting point is 115 to 118 °C (dec.).
As for `CN(C[C@@H](CCN1CCC(c2ccc([S+](C)[O-])c(F)c2)CC1)c1ccc(Cl)c(Cl)c1)C(=O)c1cc(C#N)cc2ccccc12` (stereo partly drawn) (as salt: hydrochloride) [Example 60, N-[(S)-2-(3,4-Dichlorophenyl)-4-[4-[3-fluoro-4-methylsulfinylphenyl]-1-piperidinyl]butyl]-N-methyl-3-cyano-1-naphthamide], the melting point was in the range of 175 to 180 °C.
For `CN(C[C@@H](CCN1CCC(c2ccccc2[S@+](C)[O-])CC1)c1ccc(Cl)c(Cl)c1)C(=O)c1cc(C#N)cc2ccccc12` [Example 1, N-[(S)-2-(3,4-Dichlorophenyl)-4-[4-[(S)-2-methylsulfinylphenyl]-1-piperidinyl]butyl]-N-methyl-3-cyano-1-naphthamide], the “NK2 P/A” value on NK2 receptors (2 hr) is 21.4 (2 hr). The Kd on NK2 receptor was 5.5 nM; at NK1 receptor it was 1.02 nM. At NK1 receptors (2 hr), the “NK1 P/A” value is 32.5 (2 hr).
As to `COc1ccc(C2CCN(CC[C@H](CN(C)C(=O)c3cc(C#N)cc4ccccc34)c3ccc(Cl)c(Cl)c3)CC2)c([S@+](C)[O-])c1.O=C(O)CC(O)(CC(=O)O)C(=O)O` [Example 2, N-[(S)-2-(3,4-Dichlorophenyl)-4-[4-{4-methoxy-(S)-2-methylsulfinylphenyl}-1-piperidinyl]butyl]-N-methyl-3-cyano-1-naphthamide Citrate], the “NK2 P/A” value on NK2 receptors (2 hr) is reported as 83.0 (2 hr). The Kd on NK2 receptor was 2 nM; on NK1 receptor, 7.94 nM. On NK1 receptors (2 hr), the “NK1 P/A” value was 25.0 (2 hr).
